Measurements as given in patent publication US20240069010A1, “TISSUE ORGANOID BIOPRINTING AND HIGH-THROUGHPUT SCREENING METHODOLOGY” (priority 2020, published 2024).

Tests used:
MCF-7 organoids = assay: HSLCI mass tracking of bioprinted organoids in drug screening; assay type: cell-based; details: for Organoid Behavior (%) Stable / Organoid Behavior (%) Gained Mass / Organoid Behavior (%) Lost Mass: MCF-7 organoids; for Organoid Behavior (%) Stable: mass change <10%; for Organoid Behavior (%) Gained Mass: mass increase >10%; for Organoid Behavior (%) Lost Mass: mass loss >10%
Description: (§1) Cells were bioprinted using a CELLINK BioX with a Temperature-Controlled Printhead. Gcode files were written to print the desired single-layer geometry. We wrote standardized blocks of Gcode encode the print path for the repeated geometries. MATLAB (MathWorks, Inc.) was used to integrate these standardized blocks into full Gcode files with the defined coordinates for each well. We used 8-well plates when printing the larger constructs as the depth of the well in a standard 24-well plate prohibited the use of 0.5″ length needles. Large rings were necessary to deposit a sufficient number of cells for RNA-Seq and IHC. Four rings with a diameter of 14.5 mm were printed for RNA sequencing (approximately 200,000 cells total), while four sets of concentric 14.5 mm, 12.5 mm, and 10.5 mm diameter rings were used for IHC analysis (approximately 500,000 cells total). We printed mini-squares with side length 3.9 mm for drug screening and HSLCI imaging. The mini-squares were inscribed within the circular well with sides parallel to the sides of the well plate. The open center of the constructs facilitates automatic manipulation with fluid handling equipment while the sides of the square are positioned to maximize the number of organoids imaged by HSLCI. The bioprinting process utilized the same material deposited for manually seeded organoids. A single cell suspension, aggregates or clusters in a 3:4 mixture of MammoCult™ and Matrigel® was prepared on ice. After vortexing briefly to homogenize, the mixture was transferred into a 3 mL syringe by removing the plunger and capping the opposite end. Once the plunger was replaced, the syringe was inverted, and bubbles were forced out of the tip. The material was then transferred to a room temperature 3 mL bioprinter cartridge (CELLINK) by connecting the syringe and cartridge with a double-sided female Luer lock adapter (CELLINK). Any air bubbles in the syringe were removed and the loaded cartridge was incubated in a rotating incubator (Enviro-Genie, Scientific Industries) for 30 minutes at the print temperature.
(§2) During the incubation period, the printer was sterilized with the built-in UV irradiation function and the printhead was set to the print temperature. […] The well masks were autoclaved prior to use. The masks were inserted into the well plate and pressed in contact with the glass surface. Rubber bands were used to hold the masks in place and ensure conformal contact was maintained throughout the plasma treatment. The well plates were treated with oxygen plasma in a PE-25 (Plasma Etch) for 30-90 seconds, 15 minutes prior to bioprinting. After plasma treatment, the well plate was placed in the bioprinter and Automatic Bed Levelling (ABL) was performed.
(§3) Once the incubation period ended, we attached a 0.5″ 25-gauge needle and loaded the cartridge into the pre-cooled printhead. We primed the needle by extruding a small volume of material at 15 kPa prior to calibrating the printer. Just before printing, we cleared the needle of the gelled material by extruding a small volume using 40 kPa prior to starting the print. To create constructs of the appropriate thicknesses, prints in 8-well plates were extruded at 15 kPa while prints in 96-well plates were extruded at 12-15 kPa. […] After printing, the constructs were incubated at 37° C. for at least 30 minutes to solidify the matrix and 100 μL of MammoCult™ medium was then added.
(§4) The HSLCI platform was installed inside a standard cell culture incubator. For all growth kinetics studies and drug screening, organoids were imaged in 96-well glass-bottom plates (Cellvis P96-1.5H-N) using a 40× objective (Nikon, NA 0.75). Organoids were seeded as single-cell suspensions in a 3:4 mixture of MammoCult™ and Matrigel® as described above and were grown at 37° C. and 5% CO2 in MammoCult™ medium supplemented with 1% antibiotic-antimycotic (Gibco 15240-062).

BT-474 organoids = assay: as above; assay type: cell-based; details: for Organoid Behavior (%) Lost Mass: mass loss >10%; for Organoid Behavior (%) Stable: mass change <10%; for Organoid Behavior (%) Gained Mass: mass increase >10%
Description: as §1, §2, §3, §4

[1] = in vivo; cited from earlier work

CS(=O)(=O)CCNCc1ccc(-c2ccc3ncnc(Nc4ccc(OCc5cccc(F)c5)c(Cl)c4)c3c2)o1 [Lapatinib, lapatinib]
Mean mass of MCF-7 organoids, Mean mass ± SD (MCF-7 organoids; 0.1 μM, 6 hours of treatment): 2.00 ± 1.43 ng | Mean mass of MCF-7 organoids, Mean mass ± SD (MCF-7 organoids; 0.1 μM, 48 hours of treatment): 2.76 ± 2.35 ng | Mean mass of MCF-7 organoids, Mean mass ± SD (MCF-7 organoids; 1 μM, 6 hours of treatment): 2.20 ± 1.33 ng | Mean mass of MCF-7 organoids, Mean mass ± SD (MCF-7 organoids; 1 μM, 48 hours of treatment): 2.71 ± 2.09 ng | Mean mass of MCF-7 organoids, Mean mass ± SD (MCF-7 organoids; 10 μM, 6 hours of treatment): 2.30 ± 1.48 ng | Mean mass of MCF-7 organoids, Mean mass ± SD (MCF-7 organoids; 10 μM, 48 hours of treatment): 2.46 ± 1.90 ng | Mean mass of MCF-7 organoids, Mean mass ± SD (MCF-7 organoids; 50 μM, 6 hours of treatment): 1.71 ± 0.84 ng | Mean mass of MCF-7 organoids, Mean mass ± SD (MCF-7 organoids; 50 μM, 48 hours of treatment): 1.32 ± 1.03 ng | Mean mass of MCF-7 organoids, Mean mass ± SD (MCF-7 organoids; 50 μM, 48 hours of treatment, listed as lapatinib): 1.32 ± 1.06 ng | Organoid Behavior (%) Stable (MCF-7 organoids; 0.1 μM, 12 h): 73.5% | Organoid Behavior (%) Gained Mass (MCF-7 organoids; 0.1 μM, 12 h): 17.6% | Organoid Behavior (%) Lost Mass (MCF-7 organoids; 0.1 μM, 12 h): 8.8% | Organoid Behavior (%) Stable (MCF-7 organoids; 0.1 μM, 24 h): 56.3% | Organoid Behavior (%) Gained Mass (MCF-7 organoids; 0.1 μM, 24 h): 28.1% | Organoid Behavior (%) Lost Mass (MCF-7 organoids; 0.1 μM, 24 h): 15.6% | Organoid Behavior (%) Stable (MCF-7 organoids; 0.1 μM, 48 h): 34.4% | Organoid Behavior (%) Gained Mass (MCF-7 organoids; 0.1 μM, 48 h): 46.9% | Organoid Behavior (%) Lost Mass (MCF-7 organoids; 0.1 μM, 48 h): 18.8% | Organoid Behavior (%) Stable (MCF-7 organoids; 1 μM, 12 h): 88.2% | Organoid Behavior (%) Gained Mass (MCF-7 organoids; 1 μM, 12 h): 8.8% | Organoid Behavior (%) Lost Mass (MCF-7 organoids; 1 μM, 12 h): 2.9% | Organoid Behavior (%) Stable (MCF-7 organoids; 1 μM, 24 h): 45.2% | Organoid Behavior (%) Gained Mass (MCF-7 organoids; 1 μM, 24 h): 45.2% | Organoid Behavior (%) Lost Mass (MCF-7 organoids; 1 μM, 24 h): 9.7% | Organoid Behavior (%) Stable (MCF-7 organoids; 1 μM, 48 h): 26.3% | Organoid Behavior (%) Gained Mass (MCF-7 organoids; 1 μM, 48 h): 55.3% | Organoid Behavior (%) Lost Mass (MCF-7 organoids; 1 μM, 48 h): 18.4% | Organoid Behavior (%) Stable (MCF-7 organoids; 10 μM, 12 h): 84.1% | Organoid Behavior (%) Gained Mass (MCF-7 organoids; 10 μM, 12 h): 6.8% | Organoid Behavior (%) Lost Mass (MCF-7 organoids; 10 μM, 12 h): 9.1% | Organoid Behavior (%) Stable (MCF-7 organoids; 10 μM, 24 h): 56.5% | Organoid Behavior (%) Gained Mass (MCF-7 organoids; 10 μM, 24 h): 26.1% | Organoid Behavior (%) Lost Mass (MCF-7 organoids; 10 μM, 24 h): 17.4% | Organoid Behavior (%) Stable (MCF-7 organoids; 10 μM, 48 h): 32.4% | Organoid Behavior (%) Gained Mass (MCF-7 organoids; 10 μM, 48 h): 32.4% | Organoid Behavior (%) Stable (MCF-7 organoids; 50 μM, 12 h): 58.6% | Organoid Behavior (%) Gained Mass (MCF-7 organoids; 50 μM, 12 h): 6.9% | Organoid Behavior (%) Stable (MCF-7 organoids; 50 μM, 24 h): 39.3% | Organoid Behavior (%) Gained Mass (MCF-7 organoids; 50 μM, 24 h): 14.3% | Organoid Behavior (%) Lost Mass (MCF-7 organoids; 50 μM, 24 h): 46.4% | Organoid Behavior (%) Stable (MCF-7 organoids; 50 μM, 48 h): 43.5% | Organoid Behavior (%) Gained Mass (MCF-7 organoids; 50 μM, 48 h): 4.3% | Organoid Behavior (%) Lost Mass (MCF-7 organoids; 50 μM, 48 h): 52.2% | Mean mass of BT-474 organoids, Mean mass ± SD (BT-474 organoids; 0.1 μM, 6 hours of treatment): 1.84 ± 1.21 ng | Mean mass of BT-474 organoids, Mean mass ± SD (BT-474 organoids; 0.1 μM, 48 hours of treatment): 2.33 ± 1.58 ng | Mean mass of BT-474 organoids, Mean mass ± SD (BT-474 organoids; 1 μM, 6 hours of treatment): 1.58 ± 0.78 ng | Mean mass of BT-474 organoids, Mean mass ± SD (BT-474 organoids; 1 μM, 48 hours of treatment): 1.48 ± 0.66 ng | Mean mass of BT-474 organoids, Mean mass ± SD (BT-474 organoids; 10 μM, 6 hours of treatment): 1.74 ± 0.88 ng | Mean mass of BT-474 organoids, Mean mass ± SD (BT-474 organoids; 10 μM, 48 hours of treatment): 1.42 ± 0.75 ng | Mean mass of BT-474 organoids, Mean mass ± SD (BT-474 organoids; 50 μM, 6 hours of treatment): 1.58 ± 0.70 ng | Mean mass of BT-474 organoids, Mean mass ± SD (BT-474 organoids; 50 μM, 48 hours of treatment): 0.92 ± 0.48 ng | Organoid Behavior (%) Lost Mass (BT-474 organoids; BT-474 organoids, 0.1 μM, 12 h): 3.1% | Organoid Behavior (%) Stable (BT-474 organoids; BT-474 organoids, 0.1 μM, 24 h): 45.6% | Organoid Behavior (%) Gained Mass (BT-474 organoids; BT-474 organoids, 0.1 μM, 24 h): 49.1% | Organoid Behavior (%) Lost Mass (BT-474 organoids; BT-474 organoids, 0.1 μM, 24 h): 5.3% | Organoid Behavior (%) Stable (BT-474 organoids; BT-474 organoids, 0.1 μM, 48 h): 25.8% | Organoid Behavior (%) Gained Mass (BT-474 organoids; BT-474 organoids, 0.1 μM, 48 h): 67.7% | Organoid Behavior (%) Lost Mass (BT-474 organoids; BT-474 organoids, 0.1 μM, 48 h): 6.5% | Organoid Behavior (%) Lost Mass (BT-474 organoids; BT-474 organoids, 1 μM, 12 h): 7.4% | Organoid Behavior (%) Stable (BT-474 organoids; BT-474 organoids, 1 μM, 24 h): 54.2% | Organoid Behavior (%) Gained Mass (BT-474 organoids; BT-474 organoids, 1 μM, 24 h): 20.3% | Organoid Behavior (%) Lost Mass (BT-474 organoids; BT-474 organoids, 1 μM, 24 h): 25.4% | Organoid Behavior (%) Stable (BT-474 organoids; BT-474 organoids, 1 μM, 48 h): 50.0% | Organoid Behavior (%) Gained Mass (BT-474 organoids; BT-474 organoids, 1 μM, 48 h): 27.5% | Organoid Behavior (%) Lost Mass (BT-474 organoids; BT-474 organoids, 1 μM, 48 h): 22.5% | Organoid Behavior (%) Gained Mass (BT-474 organoids; BT-474 organoids, 10 μM, 12 h): 19.6% | Organoid Behavior (%) Lost Mass (BT-474 organoids; BT-474 organoids, 10 μM, 12 h): 7.1% | Organoid Behavior (%) Stable (BT-474 organoids; BT-474 organoids, 10 μM, 24 h): 60.3% | Organoid Behavior (%) Gained Mass (BT-474 organoids; BT-474 organoids, 10 μM, 24 h): 9.5% | Organoid Behavior (%) Lost Mass (BT-474 organoids; BT-474 organoids, 10 μM, 24 h): 30.2% | Organoid Behavior (%) Stable (BT-474 organoids; BT-474 organoids, 10 μM, 48 h): 47.2% | Organoid Behavior (%) Gained Mass (BT-474 organoids; BT-474 organoids, 10 μM, 48 h): 15.1% | Organoid Behavior (%) Lost Mass (BT-474 organoids; BT-474 organoids, 10 μM, 48 h): 37.7% | Organoid Behavior (%) Lost Mass (BT-474 organoids; BT-474 organoids, 50 μM, 12 h): 18.5% | Organoid Behavior (%) Stable (BT-474 organoids; BT-474 organoids, 50 μM, 24 h): 55.6% | Organoid Behavior (%) Gained Mass (BT-474 organoids; BT-474 organoids, 50 μM, 24 h): 9.7% | Organoid Behavior (%) Lost Mass (BT-474 organoids; BT-474 organoids, 50 μM, 24 h): 34.7% | Organoid Behavior (%) Gained Mass (BT-474 organoids; BT-474 organoids, 50 μM, 48 h): 3.8% | Organoid Behavior (%) Lost Mass (BT-474 organoids; BT-474 organoids, 50 μM, 48 h): 84.6% | lowest concentration at which organoids were affected (average mass) (BT-474 organoids; BT-474 organoids, 48 h): 1 µM | maximum plasma concentration reported [1]: 4.2 µM
